The values that follow come from patent US8075916B2, “Poly(organophosphazene) hydrogels for drug delivery, preparation method thereof and use thereof” (Korea Institute of Science and Technology, priority 2007, dated 2011).

For series [1] the following is noted: pH 7.4.
Experimental: The solutions were put into a chamber of a Brookfield DV-III+ Rheometer equipped with a thermostatic bath (TC-501). The sol-gel phase transition was observed while raising the temperature at the rate of 0.04° C./min and a shear rate of 0.1 to 1.7 per second.
(temperature)” means the temperature where the viscosity of the polymer solution reaches the maximum point, and the term “Max. gel solidity” means the maximum viscosity of the polymer solution.
Such two polymers with contrary properties were mixed in various mixture ratios, and then their sol-gel phase transition with temperature change was observed.
In series [2] the test system is Stomach cancer cells, SNU-601. As to the kind of experiment: In vivo anti-cancer activity of hydrogel containing paclitaxel in nude mouse tumour model. The settings on record: 60 mg/kg, day 10 after administration, ten mice per group. The protocol:
A nude mouse (Oriental Bio, Balb/C, female of 5-weeks old, 20 g) was used as an animal model for animal experimentation for an in vivo test. Stomach cancer cells, SNU-601 (1×10^7 cells, 0.2 ml, Korean Cell Line Bank), were injected into the dorsum of the mouse. […] 0.2 ml of the solution was injected into the cancer cells, and the change in the size of the cells was measured. […] Each test was conducted for ten (10) mice for each of the control groups and the experimental groups.

For series [3], the target named is T1, albumin (Bovine Serum Albumin; BSA) (Bos taurus, UniProt P02769).
T1 construct: 0.01% albumin solution (Bovine Serum Albumin; BSA, Wako chemical); purchased Wako chemical
T1 sequence (P02769 25-607): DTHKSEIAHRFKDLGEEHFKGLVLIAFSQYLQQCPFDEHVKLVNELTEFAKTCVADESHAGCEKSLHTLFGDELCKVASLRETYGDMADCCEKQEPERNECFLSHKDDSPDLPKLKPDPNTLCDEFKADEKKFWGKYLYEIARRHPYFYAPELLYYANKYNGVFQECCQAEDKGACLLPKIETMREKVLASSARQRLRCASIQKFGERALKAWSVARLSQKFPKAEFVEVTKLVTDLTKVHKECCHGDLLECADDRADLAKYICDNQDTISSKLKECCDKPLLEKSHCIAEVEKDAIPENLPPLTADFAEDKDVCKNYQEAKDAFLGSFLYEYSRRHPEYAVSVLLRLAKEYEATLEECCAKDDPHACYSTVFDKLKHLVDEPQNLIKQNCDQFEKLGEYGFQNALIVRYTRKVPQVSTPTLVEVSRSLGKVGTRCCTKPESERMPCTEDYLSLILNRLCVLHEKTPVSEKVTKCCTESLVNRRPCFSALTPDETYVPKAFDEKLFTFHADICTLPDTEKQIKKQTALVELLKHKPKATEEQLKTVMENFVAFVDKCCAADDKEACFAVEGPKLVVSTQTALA
As to the kind of experiment: Formation of ionic bond between additives and protein drug (polyacrylamide gel electrophoresis). Format: binding. To be noted: additive 0.02, 0.1, 1 and 2 mg/ml in 0.01% albumin solution. The protocol:
In order to confirm the formation of an ion bond between the additives and drugs, gel electrophoresis was conducted. […] BSA, Wako chemical) at various concentrations (0.02, 0.1, 1 and 2 mg/ml) and sufficiently stirred.

In series [1], “poly[(isoleucine ethyl ester)(aminomethoxy polyethylene glycol 550)(aminoethylsuccinate)phosphazene] [Example 18]” returned a Max. gelling temp. of 37 °C.
Regarding `CC(=O)O[C@H]1C(=O)[C@@]2(C)[C@H]([C@H](OC(=O)c3ccccc3)[C@]3(O)C[C@H](OC(=O)[C@H](O)[C@@H](NC(=O)c4ccccc4)c4ccccc4)C(C)=C1C3(C)C)[C@]1(OC(C)=O)CO[C@@H]1C[C@@H]2O` [paclitaxel], in series [2], the “mice died due to toxicity” value was determined as 8 mice.
For the compound protamine, the “ionic bond with albumin: development on polyacrylamide gel” value in series [3] is reported as “worse development property of the gel as the concentration of the additive is higher”.
Consider “poly[(isoleucine ethyl ester) (aminomethoxy polyethylene glycol 550)(aminoethylsuccinate)(aminoethylsuccinate ethylene hyaluronic acid)phosphazene] [Example 22]”, for which the Max. gelling temp. in series [1] amounted to 38 °C.
Same read-out and setting: with “poly[(isoleucine ethyl-ester)(aminomethoxy polyethylene glycol 550)(glycylleucine)phosphazene] [Example 9]” the figure was 46 °C.
